Experimental data as given in patent US20220265775A1, “COMPOSITIONS AND METHODS FOR TREATING PULMONARY EDEMA OR LUNG INFLAMMATION” (priority 2019, published 2022).

Assays:
[1] = Single dose toxicokinetic (TK) study, intratracheal instillation of T3, serum total T3 by chemiluminescence assay; parameters: species or system Sprague-Dawley rats; details: Sprague-Dawley, rat; for AUC(0-t) / Cmax / Cmax_D / Tmax / Vz_F_obs: inhaled or intranasal
Procedure: Sixty animals (plus two spare animals/sex/group) were anesthetized and dosed via intratracheal instillation of test or control materials for five consecutive days. On the day after the last dose a terminal blood collection was performed for clinical pathology, after which animals were euthanized and a gross examination of all organs was performed by a board certified veterinary pathologist. Select tissues were collected for histopathology. […] Terminal blood collection was performed at two designated time points per animal up to 24 hours after administration for toxicokinetic evaluation. TK animals were euthanized without further evaluation after the final blood collection. All animals were acclimated for a minimum of seven days prior to the dosing procedure. Animals underwent baseline observations and examinations prior to the initiation of the study, and clinical observations and body weight monitoring were performed throughout the in-life portion of the study. All animals received the same dose volume (0.3 mL) of either test or control materials. This maximum feasible dose (MFD) is constrained by the maximum volume that can be safely and reproducibly (over five days) instilled into lungs of rats weighing 250 g to 350 g, which was determined in preliminary toxicology studies to be 0.3 mL. Actual doses delivered are reported as both μg/kg body weight and μg/gm wet lung weight. The toxicity phase animals were 72-135 days of age at the time of initial dosing. Males weighed between 256.52 g and 307.50 g with a mean±standard deviation of 286.74±11.77 g, and females weighed between 250.46 g and 299.01 g with a mean±standard deviation of 260.64±10.34 g. The TK phase animals were 68-144 days of age at the time of initial dosing. Males weighed between 261.23 g and 316.19 g; females weighed between 250.06 g and 280.32 g.
For toxicokinetic experiments, rats were anesthetized with combination of ketamine 40 mg/kg to 200 mg/kg and xylazine 1 mg/kg to 7 mg/kg, intraperitoneally (IP), to effect for dosing procedures, and dosed intratracheally with liothyronine sodium injection as previously described. Depending on the duration of time between dosing and the first or second blood collection time points, animals either had blood collected while still anesthetized under the injectable anesthetics, or if recovered, they were anesthetized with Isoflurane 2-5% and oxygen 1-1.5 L/minute by inhalation anesthesia via nose cone, as needed, to maintain adequate anesthesia depth (assessed by toe pinch). Topical proparicaine anesthetic ophthalmic solution was applied to each eye prior to performing the first blood collection and allowed time to take effect. Collection of serum samples for TK analysis was as described for serum chemistry samples above, and samples were stored at ≤−70° C. until assayed. Animals were euthanized with EUTHASOL (Virbac Corp., Fort Worth, Tex.) ≥86 mg/kg IP to effect following the final blood collection.
For assessment of serum T3 levels samples were sent to the Fairview University of Minnesota Medical Center East Bank Diagnostic Laboratory for analysis, a clinical laboratory certified by CLIA and CAP. Prior to sending serum samples to the analytical lab each sample was diluted 1:4 or 1:8 in normal (0.9%) saline. […] Samples were analyzed by a chemiluminescence assay for total triiodothyronine (T3).
An evaluation of the TK analysis was performed by Dick Brundage, PhD, University of Minnesota. Toxicokinetic parameters were estimated using Phoenix 64 WinNonlin pharmacokinetic software version 7.0. (Pharsight Corp., Mountain View, Calif.). A non-compartmental (NCA) approach consistent with the route of administration was used for parameter estimation. […] Whenever possible, mean concentrations were derived from three animals/gender/time point. Parameters were estimated using sampling times relative to the start of each dose administration. […]

[2] = test system: hyperoxia-induced lung injury; assay: Histopathological evaluation of lung sections of hyperoxia-exposed rats; assay type: in vivo, Sprague Dawley rats; details: 60 hours of hyperoxia, systemic T3 supplementation
Text: FIG. 18. […] (A) Control: room air; (B) Hyperoxia; (C) Hyperoxia+T3.
All experimental protocols for animal treatments were approved by the University of Minnesota Institutional Animal Care and Use Committee. […] The room-air control rats were kept in the University animal housing facility. At the end of hyperoxic exposure, rats were sacrificed by intraperitoneal pentobarbital injection, and the lungs were harvested; the right lobes were allocated for histopathology, measurement of lung tissue myeloperoxidase (MPO) activity and wet-to-dry weight ratio. The left lobes underwent bronchoalveolar lavage (BAL) to determine BAL protein concentrations and differential cell counts.
Lung tissue was removed and inflation fixed at 20 cm water pressure in 4% paraformaldehyde, paraffin embedded, cut as 5 micron sections and mounted onto poly-L-lysine slides. Sections were deparaffinized in xylene, rehydrated through a graded alcohol series in methanol, and placed in a 98° C. water bath for 30 minutes in citrate buffer (pH 6.0) for antigen retrieval. After quenching with 0.3% hydrogen peroxide in PBS, sections were incubated in normal serum for 30 minutes and for 15 minutes each with Avidin/Biotin Blocking Kit (Vector Laboratories, Inc., Burlingame, Calif.). […]

HO-1 = assay: Western blot of total cellular HO-1 protein in RLE-6TN cells under hyperoxia; assay type: cell-based, rat; details: T3 10^−6 M
Procedure: FIG. 10. HO-1 upregulation is required for T3-increased RLE-6TN cell survival in hyperoxia. […] The cells were then collected for Western Blot analysis. (B) The cells were incubated in 21% O2 and 5% CO2 for 72 hours in the present of HO-1 inhibitor Tin Protoporphyrin IX (10^−6M). […] Cell viability is assessed with trypan blue. The number of viable cells under specific conditions is presented as a percentage of the cell number related to hyperoxia alone. Data are mean±s.d. of three independent experiments with *=P<0.05; **=P<0.01.
The cells were lysed in lysis buffer containing 20 mM Tris HCl (pH 7.5), 150 mM NaCl, 1 mM EDTA, 1 mM EGTA, 1% (vol/vol) Triton X-100 with protease inhibitors (1 mM PMSF, 2 μg/ml pepstatin, and 10 μg/ml each of aprotinin and leupeptin), and phosphatase inhibitors (2.5 mM sodium pyrophosphate, 1 mM β-glycerophosphate, and 1 mM Na3VO4). The lysate was drawn 10 times through a 25-gauge needle on ice for further lysis and then was centrifuged at 13,000 rpm for 15 minutes at 4° C. The supernatant was collected, and the protein concentrations were determined by use of the BCA protein assay kit (Sigma-Aldrich, St. Louis, Mo.). Immediately after this step, equal amounts of protein were subjected to Western blotting analysis.

## N[C@@H](Cc1cc(I)c(Oc2ccc(O)c(I)c2)c(I)c1)C(=O)O [T3, triiodothyronine]
[1]; in vivo, male rats, individual animals, 15 min, single intratracheal dose 2.7 μg (~10.0 μg/kg)
  concentration at 15 min: 2.44 ng/mL
[1]; female
  Cl_F_obs: 30.10 mL/h
  HL_Lambda_z: 2.85 h
  AUC(0-t): 64.1 ng·h/mL
  Cmax: 16.5 ng/mL
  Cmax_D: 6.12 ng/mL/µg
  Tmax: 2 h
  Vz_F_obs: 123.60 mL
[1]; male
  Cl_F_obs: 74.29 mL/h
  HL_Lambda_z: 3.17 h
  AUC(0-t): 25.4 ng·h/mL
  Cmax: 6.6 ng/mL
  Cmax_D: 2.44 ng/mL/µg
  Tmax: 1 h
  Vz_F_obs: 339.44 mL
[2]
  lung morphology (histopathology): persistence of virtually normal lung morphology
HO-1
  total cellular protein of HO-1: significantly enhanced total cellular protein of HO-1
